Source: US20210107874A1, “PHARMACEUTICAL FORMULATION OF CROTONYLAMINOPYRIDINE SALT” (priority 2017, published 2021)
Like-named read-outs stand apart in the source and are kept apart here.

Assay: PK studies of formulations, plasma by HPLC-MS/MS
Assay type: in vivo
Settings: Cattle; for AUC / Cmax / Tmax: bovine, plasma; for AUC: read-out: AUC; for Cmax: read-out: Cmax; for Tmax: read-out: Tmax
Method: The following formulations were prepared and administered to animals. Blood samples were collected at pre-defined time points and the amount of compound present in plasma at the time of sampling was determined by HPLC-MS/MS. Pharmacokinetic parameters were then calculated: Cmax, Tmax, Tlast, AUC. [table]

[1] = sc, 1 mg/kg, FormR50 (L-tartaric acid, 2-pyrrolidone, NaOH, water), 1 mg/kg
[2] = sc, 1 mg/kg, FormS50 (L-tartaric acid, sodium carboxymethyl cellulose, 2-pyrrolidone, NaOH, water), 1 mg/kg
[3] = sc, 1 mg/kg, pH 4.4, FormO60 (FormO type: L-tartaric acid, NaOH to pH 4.4, water), 1 mg/kg
[4] = sc, 1 mg/kg, pH 4.4, FormT50 (DL-Lactic acid, hydrochloric acid up to pH 4.4, water), 1 mg/kg
[5] = sc, 1.25 mg/kg, Form A50 (NMP, propylene glycol, water), 1.25 mg/kg
[6] = sc, 1.25 mg/kg, Form B62.5 (dimethyl acetamide, propylene glycol, water), 1.25 mg/kg
[7] = sc, 1.25 mg/kg, FormC62.5 (propylene glycol, ethanol, Transcutol P), 1.25 mg/kg
[8] = sc, 1.25 mg/kg, FormD62.5 (PEG 300, ethanol, Transcutol P), 1.25 mg/kg
[9] = sc, 1.25 mg/kg, FormE62.5 (polyethylene glycol 300, ethyl alcohol 96%, water), 1.25 mg/kg
[10] = sc, 1.25 mg/kg, FormF62.5 (polyethylene glycol, 1-octanol, 2-pyrrolidone), 1.25 mg/kg
[11] = sc, 1.25 mg/kg, FormG62.5 (benzyl alcohol, ethyl alcohol 96%, polyethylene glycol 300), 1.25 mg/kg
[12] = sc, 1.25 mg/kg, FormH62.5 (DMA, DMSO, 2-pyrrolidone), 1.25 mg/kg
[13] = sc, 1.25 mg/kg, FormK62.5 (2-pyrrolidone, Transcutol P, ethyl lactate), 1.25 mg/kg
[14] = sc, 1.25 mg/kg, FormL50 (DMA, propylene glycol, water), 1.25 mg/kg
[15] = sc, 1.25 mg/kg, FormP62.5 (L-tartaric acid, 2-pyrrolidone, NaOH, water), 1.25 mg/kg
[16] = sc, 1.25 mg/kg, pH 4.3, FormQ62.5 (L-tartaric acid, sodium carboxymethyl cellulose, NaOH up to pH 4.3, water), 1.25 mg/kg
[17] = sc, 1.25 mg/kg, pH 4.4, Form O62.5 (FormO type: L-tartaric acid, NaOH to pH 4.4, water), 1.25 mg/kg
[18] = sc, 1.25 mg/kg, pH 4.6, FormM62.5 (L-tartaric acid, sodium hydroxide up to pH 4.6, water), 1.25 mg/kg
[19] = FormJ62.5 (DMSO, 2-pyrrolidone, ethyl lactate), SC, 1.25 mg/kg

`CCOc1cc(NCCNC(=O)/C=C/C(F)(F)F)ccn1` [Compound 4, (E)-N-[2-[(2-ethoxy-4-pyridyl)amino]ethyl]-4,4,4-trifluoro-but-2-enamide] showed a Tlast (FormR50 (L-tartaric acid, 2-pyrrolidone, NaOH, water), SC, 1 mg/kg) of 6.67 h, a Tlast (FormS50 (L-tartaric acid, sodium carboxymethyl cellulose, 2-pyrrolidone, NaOH, water), SC, 1 mg/kg) of 8.67 h and a Tlast (FormT50 (DL-Lactic acid, hydrochloric acid up to pH 4.4, water), SC, 1 mg/kg) of 3.67 h. It also gave an AUC [1] of 248 ng·h/mL, a Cmax [1] of 59.4 ng/mL and a Tmax [1] of 60 min. For the same compound, the AUC [2] was 339 ng·h/mL, the Cmax [2] was 69.3 ng/mL and the Tmax [2] was 79.8 min. It also gave an AUC [3] of 302 ng·h/mL, a Cmax [3] of 374 ng/mL and a Tmax [3] of 15 min. The AUC [4] was 293 ng·h/mL, the Cmax [4] was 281 ng/mL and the Tmax [4] was 25.2 min. It also gave an AUC [5] of 204 ng·h/mL, a Cmax [5] of 127 ng/mL and a Tmax [5] of 26.4 min. It also gave an AUC [6] of 98.2 ng·h/mL, a Cmax [6] of 37.4 ng/mL and a Tmax [6] of 30 min. For the same compound, the AUC [7] was 130 ng·h/mL, the Cmax [7] was 46.4 ng/mL and the Tmax [7] was 39.6 min. The AUC [8] was 63.2 ng·h/mL, the Cmax [8] was 25.4 ng/mL and the Tmax [8] was 55.2 min. For the same compound, the AUC [9] was 76.4 ng·h/mL, the Cmax [9] was 45.7 ng/mL and the Tmax [9] was 25.2 min. It also gave an AUC [10] of 78.5 ng·h/mL, a Cmax [10] of 15.2 ng/mL and a Tmax [10] of 37.8 min. The AUC [11] was 44.8 ng·h/mL, the Cmax [11] was 12.5 ng/mL and the Tmax [11] was 140 min. The AUC [12] was 88.2 ng·h/mL, the Cmax [12] was 42.1 ng/mL and the Tmax [12] was 40.2 min. For the same compound, the AUC [13] was 86 ng·h/mL, the Cmax [13] was 29.9 ng/mL and the Tmax [13] was 49.8 min. For the same compound, the AUC [14] was 59.8 ng·h/mL, the Cmax [14] was 28.1 ng/mL and the Tmax [14] was 40.2 min. The AUC [15] was 322 ng·h/mL, the Cmax [15] was 94.2 ng/mL and the Tmax [15] was 49.8 min. The AUC [16] was 356 ng·h/mL, the Cmax [16] was 297 ng/mL and the Tmax [16] was 34.8 min. For the same compound, the AUC [17] was 358 ng·h/mL, the Cmax [17] was 300 ng/mL and the Tmax [17] was 30 min. The AUC [18] was 336 ng·h/mL, the Cmax [18] was 350 ng/mL and the Tmax [18] was 15 min. The AUC [19] was 99.6 ng·h/mL, the Cmax [19] was 37.1 ng/mL and the Tmax [19] was 110 min.
